Entries after “also recorded” stand apart in the source; their conditions may differ.
The compounds below were run on Kyn levels in BxPC3 cells (kynurenine generated by IDO1) (assay: Cellular Kyn assay (automated Kyn screening assay)). Conditions: not given.
Format: cell-based

| SMILES | activity in cellular Kyn assay (in words) | fold lower activity than 14 (iDeg-2) in Kyn assay [fold] |
| --- | --- | --- |
| CC(C)[C@]12CC(OC(=O)Nc3ccc(I)cc3)[C@]3(CCN(S(=O)(=O)c4ccc(C(C)(C)C)cc4)C3)[C@H]1C2 (stereo partly drawn) [compound 24, (1S,2R,5S)-1'-((4-(tert-butyl)phenyl)sulfonyl)-5-isopropylspiro[bicyclo[3.1.0]hexane-2,3'-pyrrolidin]-3-yl (4-iodophenyl)carbamate] | inactive |  |
| CC(C)(C)c1ccc(S(=O)(=O)N2C[C@@H]3C[C@@H]4C[C@@H](C4(C)C)[C@]3(COC(=O)Nc3ccc(I)cc3)C2)cc1 [compound 20, ((3aR,4S,6S,7aR)-2-((4-(tert-butyl)phenyl)sulfonyl)-5,5-dimethyloctahydro-3aH-4,6-methanoisoindol-3a-yl)methyl (4-iodophenyl)carbamate] |  | 16 |
| Cc1ccc(NC(=O)NC[C@]23CN(S(=O)(=O)c4ccc(C(C)(C)C)cc4)C[C@H]2C[C@H]2C[C@@H]3C2(C)C)cc1 [compound 7, 1-(((3aR,4R,6R,7aS)-2-((4-(tert-butyl)phenyl)sulfonyl)-5,5-dimethyloctahydro-3aH-4,6-methanoisoindol-3a-yl)methyl)-3-(p-tolyl) urea] | did not improve activity |  |
| CC(C)[C@]12C[C@@H](OC(=O)Nc3ccc(I)cc3)[C@]3(CCN(S(=O)(=O)c4ccc(C(C)(C)C)cc4)C3)[C@H]1C2 [compound 23, (1S,2R,3R,5S)-1'-((4-(tert-butyl)phenyl)sulfonyl)-5-isopropylspiro[bicyclo[3.1.0]hexane-2,3'-pyrrolidin]-3-yl (4-iodophenyl) carbamate] | inactive |  |
| CC(C)(C)c1ccc(S(=O)(=O)N2CC3C[C@H]4C[C@H](C4(C)C)[C@]3(COC(=O)c3ccccc3)C2)cc1 (stereo partly drawn) [compound 15, ((3aR,4R,6R)-2-((4-(tert-butyl)phenyl)sulfonyl)-5,5-dimethyloctahydro-3aH-4,6-methanoisoindol-3a-yl)methyl benzoate] | did not improve activity; also recorded: inactive |  |
| CC(C)(C)c1ccc(S(=O)(=O)N2CC3CCCC3(COC(=O)Nc3ccc(I)cc3)C2)cc1 (centres unmarked) [compound 26, (2-((4-(tert-butyl)phenyl)sulfonyl)hexahydrocyclopenta [c]pyrrol-3a(1H)-yl) methyl (4-iodophenyl) carbamate] | inactive |  |
| CC(C)(C)c1ccc(S(=O)(=O)N2C[C@@H]3C[C@@H]4[C@H](C[C@]3(COC(=O)Nc3ccc(I)cc3)C2)C4(C)C)cc1 [compound 21, ((3aR,4aS,5aR,6aR)-2-((4-(tert-butyl)phenyl)sulfonyl)-5,5-dimethyloctahydrocyclopropa[f]isoindol-3a(1H)-yl)methyl (4-iodophenyl)carbamate] | inactive |  |

Same assay, conditions: Homo sapiens, BXPC-3, 48 h, IFN-γ, L-Trp and compounds 48 h, mean ± SD, read-out: IC50 (Kyn assay), reduction of kynurenine levels

| SMILES | IC50 [nM] |
| --- | --- |
| CC(C)(C)c1ccc(S(=O)(=O)N2C[C@H]3C[C@H]4C[C@H](C4(C)C)[C@@]3(COC(=O)Nc3cccc(N=[N+]=[N-])c3)C2)cc1 [compound 41, ((3aS,4R,6R,7aS)-2-((4-(tert-butyl)phenyl)sulfonyl)-5,5-dimethyloctahydro-3aH-4,6-methanoisoindol-3a-yl)methyl (3-azidophenyl)carbamate] | > 10000 |
| COc1ccc(NC(=O)OC[C@]23CN(S(=O)(=O)c4ccc(C(C)(C)C)cc4)C[C@H]2C[C@H]2C[C@@H]3C2(C)C)cc1 [compound 44, ((3aS,4R,6R,7aS)-2-((4-(tert-butyl)phenyl)sulfonyl)-5,5-dimethyloctahydro-3aH-4,6-methanoisoindol-3a-yl)methyl (4-methoxyphenyl)carbamate] | 1200 ± 200 |
| CC(C)(C)c1ccc(S(=O)(=O)N2C[C@H]3C[C@H]4C[C@H](C4(C)C)[C@@]3(COC(=O)Nc3ccc(C#N)cc3)C2)cc1 [compound 47, ((3aS,4R,6R,7aS)-2-((4-(tert-butyl)phenyl)sulfonyl)-5,5-dimethyloctahydro-3aH-4,6-methanoisoindol-3a-yl)methyl (4-cyanophenyl)carbamate] | 2100 ± 800 |
| COC(=O)CC(C)(C)c1ccc(S(=O)(=O)N2C[C@H]3C[C@H]4C[C@H](C4(C)C)[C@@]3(COC(=O)Nc3ccc(I)cc3)C2)cc1 [compound 90, Methyl 3-(4-(((3aS,4R,6R,7aS)-3a-((((4-iodophenyl)carbamoyl)oxy)methyl)-5,5-dimethyloctahydro-2H-4,6-methanoisoindol-2-yl)sulfonyl)phenyl)-3-methylbutanoate] | 32 ± 11 |
| Cc1cccc(S(=O)(=O)N2C[C@H]3C[C@H]4C[C@H](C4(C)C)[C@@]3(COC(=O)Nc3ccc(I)cc3)C2)c1 [compound 67, ((3aS,4R,6R,7aS)-5,5-dimethyl-2-(m-tolylsulfonyl)octahydro-3aH-4,6-methanoisoindol-3a-yl)methyl (4-iodophenyl)carbamate] | 1100 ± 500 |
| CC1(C)[C@H]2C[C@@H]3CN(S(=O)(=O)c4ccc(C5CCCCC5)cc4)C[C@]3(COC(=O)Nc3ccc(I)cc3)[C@@H]1C2 [compound 71, ((3aS,4R,6R,7aS)-2-((4-cyclohexylphenyl)sulfonyl)-5,5-dimethyloctahydro-3aH-4,6-methanoisoindol-3a-yl)methyl (4-iodophenyl)carbamate] | 1100 ± 300 |
| CC1(C)[C@H]2C[C@@H]3CN(S(=O)(=O)c4ccc5ccccc5c4)C[C@]3(COC(=O)Nc3ccc(I)cc3)[C@@H]1C2 [compound 64, ((3aS,4R,6R,7aS)-5,5-dimethyl-2-(naphthalen-2-ylsulfonyl)octahydro-3aH-4,6-methanoisoindol-3a-yl)methyl (4-iodophenyl)carbamate] | 400 ± 100 |

Other lines, results leading:

| IC50 [nM] | SMILES |
| --- | --- |
| 230 ± 60 | CC(C)(C)Cc1ccc(S(=O)(=O)N2C[C@H]3C[C@H]4C[C@H](C4(C)C)[C@@]3(COC(=O)Nc3ccc(I)cc3)C2)cc1 [compound 74, ((3aS,4R,6R,7aS)-5,5-dimethyl-2-((4-neopentylphenyl)sulfonyl)octahydro-3aH-4,6-methanoisoindol-3a-yl)methyl (4-iodophenyl)carbamate] |
| 230 ± 50 | CC(C)(C)c1ccc(S(=O)(=O)N2C[C@H]3C[C@H]4C[C@H](C4(C)C)[C@@]3(COC(=O)Nc3ccc(Br)cc3)C2)cc1 [compound 36, ((3aS,4R,6R,7aS)-2-((4-(tert-butyl)phenyl)sulfonyl)-5,5-dimethyloctahydro-3aH-4,6-methanoisoindol-3a-yl)methyl (4-bromophenyl)carbamate] |
| 5100 ± 400 | Cc1ccc(NC(=O)OC[C@]23CN(S(=O)(=O)C4CCCCC4)C[C@H]2C[C@H]2C[C@@H]3C2(C)C)cc1 [compound 55, ((3aS,4R,6R,7aS)-2-(cyclohexylsulfonyl)-5,5-dimethyloctahydro-3aH-4,6-methanoisoindol-3a-yl)methyl p-tolylcarbamate] |
| 890 ± 180 | CC(C)(C)c1ccc(S(=O)(=O)N2C[C@H]3C[C@H]4C[C@H](C4(C)C)[C@@]3(COC(=O)Nc3ccccc3I)C2)cc1 [compound 37, ((3aS,4R,6R,7aS)-2-((4-(tert-butyl)phenyl)sulfonyl)-5,5-dimethyloctahydro-3aH-4,6-methanoisoindol-3a-yl)methyl (2-iodophenyl)carbamate] |
| 7300 ± 1400 | CC(C)(C(=O)N1CCOCC1)c1ccc(S(=O)(=O)N2C[C@H]3C[C@H]4C[C@H](C4(C)C)[C@@]3(COC(=O)Nc3ccc(I)cc3)C2)cc1 [compound 86, ((3aS,4R,6R,7aS)-5,5-dimethyl-2-((4-(2-methyl-1-morpholino-1-oxopropan-2-yl)phenyl)sulfonyl)octahydro-3aH-4,6-methanoisoindol-3a-yl)methyl (4-iodophenyl)carbamate] |
| 650 ± 270 | Cc1ccccc1S(=O)(=O)N1C[C@H]2C[C@H]3C[C@H](C3(C)C)[C@@]2(COC(=O)Nc2ccc(I)cc2)C1 [compound 66, ((3aS,4R,6R,7aS)-5,5-dimethyl-2-(o-tolylsulfonyl)octahydro-3aH-4,6-methanoisoindol-3a-yl)methyl (4-iodophenyl)carbamate] |
| 2500 ± 100 | CN(C)CC(C)(C)c1ccc(S(=O)(=O)N2C[C@H]3C[C@H]4C[C@H](C4(C)C)[C@@]3(COC(=O)Nc3ccc(I)cc3)C2)cc1 [compound 88, ((3aS,4R,6R,7aS)-2-((4-(1-(dimethylamino)-2-methylpropan-2-yl)phenyl)sulfonyl)-5,5-dimethyloctahydro-3aH-4,6-methanoisoindol-3a-yl)methyl (4-iodophenyl)carbamate] |
| > 10000 | CC(C)(C)c1ccc(S(=O)(=O)N2C[C@H]3C[C@H]4C[C@H](C4(C)C)[C@@]3(COC(=O)Nc3ccc(O)cc3)C2)cc1 [compound 42, ((3aS,4R,6R,7aS)-2-((4-(tert-butyl)phenyl)sulfonyl)-5,5-dimethyloctahydro-3aH-4,6-methanoisoindol-3a-yl)methyl (4-hydroxyphenyl)carbamate] |
| > 10000 | CC(C)(C)c1ccc(S(=O)(=O)N2C[C@H]3C[C@H]4C[C@H](C4(C)C)[C@@]3(COC(=O)Nc3ccc(F)cc3)C2)cc1 [compound 34, ((3aS,4R,6R,7aS)-2-((4-(tert-butyl)phenyl)sulfonyl)-5,5-dimethyloctahydro-3aH-4,6-methanoisoindol-3a-yl)methyl (4-fluorophenyl)carbamate] |
| 2900 ± 300 | CCc1ccc(NC(=O)OC[C@]23CN(S(=O)(=O)c4ccc(C(C)(C)C)cc4)C[C@H]2C[C@H]2C[C@@H]3C2(C)C)cc1 [compound 28, ((3aS,4R,6R,7aS)-2-((4-(tert-butyl)phenyl)sulfonyl)-5,5-dimethyloctahydro-3aH-4,6-methanoisoindol-3a-yl)methyl (4-ethylphenyl)carbamate] |
| 4700 ± 410 | Cc1ccc(NC(=O)OC[C@]23CN(S(=O)(=O)C(C)C)C[C@H]2C[C@H]2C[C@@H]3C2(C)C)cc1 [compound 54, ((3aS,4R,6R,7aS)-2-(isopropylsulfonyl)-5,5-dimethyloctahydro-3aH-4,6-methanoisoindol-3a-yl) methyl p-tolylcarbamate] |
| 3500 ± 300 | CC1(C)[C@H]2C[C@@H]3CN(S(=O)(=O)c4cccs4)C[C@]3(COC(=O)Nc3ccc(I)cc3)[C@@H]1C2 [compound 63, ((3aS,4R,6R,7aS)-5,5-dimethyl-2-(thiophen-2-ylsulfonyl)octahydro-3aH-4,6-methanoisoindol-3a-yl)methyl (4-iodophenyl)carbamate] |
